This passage reports IC50 results from US10125098B2, “Therapeutic compounds and methods of use thereof” (GENENTECH, INC., priority 2014, dated 2018).

The target in one data set is T1, NaV1.5 (Homo sapiens, UniProt Q14524).
T1 construct: permanently transfected with an expression vector containing the full-length cDNA coding for the desired human sodium channel α-subunit; expressed in transfected cells; host or cells: HEK-293
Kind of data set: Patch voltage clamp electrophysiology assay (EP), NaV1.5. In kind it is cell-based. The note with it: HEK-293 cells stably expressing NaV1.5 with β1 subunit, whole-cell patch clamp, membrane potential −60 mV (inactivated state). The gist of the method:
(§1)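 HEK-293 cells stably expressing human α-subunit with β1; whole-cell patch clamp (PatchXpress or manual), ambient temperature, pH 7.4 external NaCl, CsF internal. Held at −60 mV (full inactivation), stepped to −150 mV for 20 ms, then test pulse; percent current decrease after compound wash-on taken as block.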
For orientation: Patch clamp records ionic current or voltage across a cell membrane.

In another data set the target is T2, hNav1.7 (Homo sapiens, UniProt Q15858).
T2 construct: expressed in transfected cells
Kind of data set: Tritiated compound binding (LBA) to membranes from cells expressing hNav1.7 and the β1 subunit, competitive binding. The following applies: competitive binding vs 100 pM [3H]compound, 18 h, room temperature, membranes with hNav1.7 and β1 subunit. The gist of the method:
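Membranes from cells expressing hNav1.7 with β1 were incubated 18 h at room temperature with 100 pM tritiated formula (I) compound and increasing test compound, in 100 mM NaCl, 20 mM Tris HCl pH 7.4, 0.01% BSA.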

Another data set concerns the target T3, human NaV1.7 (Homo sapiens, UniProt Q15858).
T3 construct: permanently transfected with an expression vector containing the full-length cDNA coding for the desired human sodium channel α-subunit; expressed in transfected cells; host or cells: HEK-293
The data set can be described thus: Patch voltage clamp electrophysiology assay (EP), NaV1.7. In kind it is cell-based. The following applies: HEK-293 cells stably expressing NaV1.7 with β1 subunit; whole-cell patch clamp, membrane potential −60 mV (inactivated state). In outline:
as §1

The mark [1] stands for this setting: human, HEK-293 cells stably expressing human NaV1.5 with β1 subunit, pH 7.4.

Structures can show the parent of a compound that is named as a salt. Where two headings read alike, the source gives them in different places.

T3 sequence (Q15858 1-1977 isoform Q15858-3): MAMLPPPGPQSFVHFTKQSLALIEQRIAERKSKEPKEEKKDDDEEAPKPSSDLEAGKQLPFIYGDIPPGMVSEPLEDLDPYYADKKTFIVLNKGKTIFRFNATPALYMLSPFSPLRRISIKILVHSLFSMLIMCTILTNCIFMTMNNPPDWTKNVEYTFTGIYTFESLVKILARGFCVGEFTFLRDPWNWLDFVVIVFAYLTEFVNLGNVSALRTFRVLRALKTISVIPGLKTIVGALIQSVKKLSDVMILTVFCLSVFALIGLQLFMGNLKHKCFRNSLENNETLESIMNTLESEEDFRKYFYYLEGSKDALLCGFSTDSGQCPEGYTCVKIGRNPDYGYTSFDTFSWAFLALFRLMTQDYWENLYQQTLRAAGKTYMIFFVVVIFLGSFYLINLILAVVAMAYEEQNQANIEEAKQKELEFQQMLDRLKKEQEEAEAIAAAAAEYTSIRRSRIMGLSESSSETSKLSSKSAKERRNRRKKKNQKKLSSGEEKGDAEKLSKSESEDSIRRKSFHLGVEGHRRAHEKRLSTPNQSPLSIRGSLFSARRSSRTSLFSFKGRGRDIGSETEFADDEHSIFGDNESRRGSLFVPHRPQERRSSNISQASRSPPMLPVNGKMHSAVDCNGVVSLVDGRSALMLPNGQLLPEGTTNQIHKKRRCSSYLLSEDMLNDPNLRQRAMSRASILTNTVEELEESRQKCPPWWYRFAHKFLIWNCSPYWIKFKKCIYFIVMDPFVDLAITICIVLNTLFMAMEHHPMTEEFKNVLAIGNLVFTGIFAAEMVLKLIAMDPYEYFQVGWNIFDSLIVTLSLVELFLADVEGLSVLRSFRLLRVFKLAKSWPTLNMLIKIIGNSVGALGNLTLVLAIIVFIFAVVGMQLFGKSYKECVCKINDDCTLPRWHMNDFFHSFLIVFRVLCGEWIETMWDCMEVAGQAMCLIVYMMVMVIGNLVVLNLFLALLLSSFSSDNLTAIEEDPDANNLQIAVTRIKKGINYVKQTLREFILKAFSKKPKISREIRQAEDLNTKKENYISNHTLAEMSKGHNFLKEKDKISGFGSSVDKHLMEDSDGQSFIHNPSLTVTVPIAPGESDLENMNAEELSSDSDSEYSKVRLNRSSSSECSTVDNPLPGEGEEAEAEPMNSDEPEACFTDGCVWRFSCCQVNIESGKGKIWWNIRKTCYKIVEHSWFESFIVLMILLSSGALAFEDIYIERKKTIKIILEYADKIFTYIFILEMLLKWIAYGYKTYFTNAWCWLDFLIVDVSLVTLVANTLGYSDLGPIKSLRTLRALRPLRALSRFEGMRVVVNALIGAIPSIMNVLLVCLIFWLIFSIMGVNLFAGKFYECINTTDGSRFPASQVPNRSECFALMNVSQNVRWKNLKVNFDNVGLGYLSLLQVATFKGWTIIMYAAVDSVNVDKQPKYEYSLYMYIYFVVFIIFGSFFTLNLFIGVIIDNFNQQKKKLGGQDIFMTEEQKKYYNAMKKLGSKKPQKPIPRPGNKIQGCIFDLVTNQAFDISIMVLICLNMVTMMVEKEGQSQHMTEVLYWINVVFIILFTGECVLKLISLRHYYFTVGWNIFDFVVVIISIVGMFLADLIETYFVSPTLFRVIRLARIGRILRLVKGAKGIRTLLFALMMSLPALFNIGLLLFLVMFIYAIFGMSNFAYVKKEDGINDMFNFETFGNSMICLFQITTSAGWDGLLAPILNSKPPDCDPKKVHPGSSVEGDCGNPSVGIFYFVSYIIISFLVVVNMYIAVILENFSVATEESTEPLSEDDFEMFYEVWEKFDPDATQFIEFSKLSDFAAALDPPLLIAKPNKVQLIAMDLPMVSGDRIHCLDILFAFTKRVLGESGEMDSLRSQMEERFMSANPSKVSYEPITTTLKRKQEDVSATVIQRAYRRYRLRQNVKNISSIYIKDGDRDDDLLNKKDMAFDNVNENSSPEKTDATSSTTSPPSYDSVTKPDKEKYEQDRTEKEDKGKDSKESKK
T3 sequence (Q07699 19-218 partner): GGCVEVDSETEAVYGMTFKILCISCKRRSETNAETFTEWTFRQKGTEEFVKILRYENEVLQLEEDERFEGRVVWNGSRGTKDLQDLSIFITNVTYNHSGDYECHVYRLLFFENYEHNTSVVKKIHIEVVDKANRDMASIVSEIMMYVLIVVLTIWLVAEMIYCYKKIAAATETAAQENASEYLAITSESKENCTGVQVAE
T2 sequence (Q15858 1-1977 isoform Q15858-3): as the sequence (Q15858 1-1977 isoform Q15858-3) above
T2 sequence (Q07699 19-218 partner): as the sequence (Q07699 19-218 partner) above
T1 sequence (Q14524 whole entry): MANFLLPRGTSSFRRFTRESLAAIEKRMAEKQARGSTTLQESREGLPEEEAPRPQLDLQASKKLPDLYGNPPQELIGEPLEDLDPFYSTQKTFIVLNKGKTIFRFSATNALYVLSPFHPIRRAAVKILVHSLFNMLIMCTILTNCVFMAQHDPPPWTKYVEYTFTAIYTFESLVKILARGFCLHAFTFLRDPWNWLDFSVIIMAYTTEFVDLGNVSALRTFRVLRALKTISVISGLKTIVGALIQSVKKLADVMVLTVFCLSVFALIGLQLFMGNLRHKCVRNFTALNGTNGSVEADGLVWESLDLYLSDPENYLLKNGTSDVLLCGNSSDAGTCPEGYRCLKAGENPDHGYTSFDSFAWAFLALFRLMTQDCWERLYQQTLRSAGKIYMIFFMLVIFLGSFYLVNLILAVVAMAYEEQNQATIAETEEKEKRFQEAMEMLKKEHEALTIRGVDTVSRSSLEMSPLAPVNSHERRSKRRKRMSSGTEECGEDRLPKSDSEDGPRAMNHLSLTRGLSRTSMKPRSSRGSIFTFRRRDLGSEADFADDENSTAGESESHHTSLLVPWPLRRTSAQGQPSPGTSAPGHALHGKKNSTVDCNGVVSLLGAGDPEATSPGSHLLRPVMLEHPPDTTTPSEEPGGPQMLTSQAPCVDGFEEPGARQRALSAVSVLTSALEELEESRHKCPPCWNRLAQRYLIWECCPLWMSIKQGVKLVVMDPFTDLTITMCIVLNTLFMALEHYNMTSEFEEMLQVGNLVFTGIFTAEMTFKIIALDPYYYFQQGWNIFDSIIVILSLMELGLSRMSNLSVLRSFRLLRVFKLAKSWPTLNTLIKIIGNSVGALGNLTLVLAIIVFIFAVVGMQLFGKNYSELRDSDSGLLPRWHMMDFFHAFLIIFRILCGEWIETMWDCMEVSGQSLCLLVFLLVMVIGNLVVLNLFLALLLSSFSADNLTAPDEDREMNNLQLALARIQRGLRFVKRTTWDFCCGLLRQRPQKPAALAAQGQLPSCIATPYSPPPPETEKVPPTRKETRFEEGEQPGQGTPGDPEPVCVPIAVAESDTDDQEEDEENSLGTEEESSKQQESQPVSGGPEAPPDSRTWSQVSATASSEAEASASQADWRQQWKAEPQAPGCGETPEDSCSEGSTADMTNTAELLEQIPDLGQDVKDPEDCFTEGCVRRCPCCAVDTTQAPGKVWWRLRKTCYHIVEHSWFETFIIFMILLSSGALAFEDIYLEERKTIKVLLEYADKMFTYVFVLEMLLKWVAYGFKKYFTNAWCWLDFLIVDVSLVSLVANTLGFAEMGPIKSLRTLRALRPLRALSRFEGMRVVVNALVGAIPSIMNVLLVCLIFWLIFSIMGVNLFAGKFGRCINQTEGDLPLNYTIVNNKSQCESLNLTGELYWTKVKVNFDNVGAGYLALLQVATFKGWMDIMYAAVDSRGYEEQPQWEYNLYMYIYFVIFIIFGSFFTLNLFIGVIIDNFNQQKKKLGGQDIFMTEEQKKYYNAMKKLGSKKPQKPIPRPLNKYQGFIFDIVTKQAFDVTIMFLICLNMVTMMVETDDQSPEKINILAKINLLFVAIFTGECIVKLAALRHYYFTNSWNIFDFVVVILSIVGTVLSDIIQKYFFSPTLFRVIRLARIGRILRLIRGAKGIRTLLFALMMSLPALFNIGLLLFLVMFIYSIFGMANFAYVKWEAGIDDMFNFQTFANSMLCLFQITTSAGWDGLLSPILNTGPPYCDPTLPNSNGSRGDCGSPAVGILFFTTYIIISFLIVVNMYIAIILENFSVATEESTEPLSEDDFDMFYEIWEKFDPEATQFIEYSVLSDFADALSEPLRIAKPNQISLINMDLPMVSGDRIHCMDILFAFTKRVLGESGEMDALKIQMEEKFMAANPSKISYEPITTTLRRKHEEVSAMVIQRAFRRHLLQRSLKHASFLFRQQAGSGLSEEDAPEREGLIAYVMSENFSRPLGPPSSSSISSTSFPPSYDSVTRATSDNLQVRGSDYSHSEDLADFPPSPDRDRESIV

On to `O=C(O)[C@@H]1C[C@@H](F)CN1C(=O)c1cc(C2CC2)c(OCC2(F)CCN(Cc3ccc(C(F)(F)F)cc3Cl)CC2)cc1F` [Example 127, (2S, 4R)-1-(4-((1-(2-chloro-4-(trifluoromethyl)benzyl)-4-fluoropiperidin-4-yl)methoxy)-5-cyclopropyl-2-fluorobenzoyl)-4-fluoropyrrolidine-2-carboxylic acid], for which the IC50 on NaV1.5 (read-out: Nav1.5) was 13000 nM; on hNav1.7 it was 120 nM; at human NaV1.7, 400 nM.
On to `O=C(NC1(C(=O)O)COC1)c1cc(C2CC2)c(OCC23CC4CC(CC(C4)C2)C3)cc1F` [Example 77, 3-(4-(adamantan-1-ylmethoxy)-5-cyclopropyl-2-fluorobenzamido)oxetane-3-carboxylic acid], for which the IC50 at NaV1.5 (read-out: Nav1.5) turned out to be 12000 nM; on hNav1.7, 7400 nM; against human NaV1.7 it was 11000 nM.
In the same order, the values of `O=C(O)[C@@H]1CC(F)(F)CN1C(=O)c1cc(C2CC2)c(OCC23CC4CC(CC(C4)C2)C3)cc1F` [Example 145, (2S)-1-[4-(1-adamantylmethoxy)-5-cyclopropyl-2-fluoro-benzoyl]-4,4-difluoro-pyrrolidine-2-carboxylic acid] are 16000 nM, 35 nM and 640 nM.
Regarding `O=C(O)[C@@H]1C[C@@H](F)CN1C(=O)c1cc(C2CC2)c(OCC2CCN(Cc3cc(Cl)cc(OC(F)(F)F)c3)CC2)cc1F` [Example 105, (2S,4R)-1-(4-((1-(3-chloro-5-(trifluoromethoxy)benzyl)piperidin-4-yl)methoxy)-5-cyclopropyl-2-fluorobenzoyl)-4-fluoropyrrolidine-2-carboxylic acid], the IC50 on NaV1.5 (read-out: Nav1.5) is 22000 nM; on hNav1.7, 37 nM; on human NaV1.7, 220 nM.
In the same order, the values of `C[C@H]1[C@H](O)CN(C(=O)c2cc(C3CC3)c(OCC34CC5CC(CC(C5)C3)C4)cc2F)[C@@H]1C(=O)O` [Example 230, (2S, 3R, 4S)-1-(4-(adamantan-1-ylmethoxy)-5-cyclopropyl-2-fluorobenzoyl)-4-hydroxy-3-methylpyrrolidine-2-carboxylic acid] are 11000 nM, 21 nM and 32 nM.
With `C[C@@H](c1cc(Cl)cc(Cl)c1)N1CCC(COc2cc(F)c(C(=O)N3CSC[C@H]3C(=O)O)cc2C2CC2)CC1` [Example 159, (4R)-3-[5-cyclopropyl-4-[[1-[(1S)-1-(3,5-dichlorophenyl)ethyl]-4-piperidyl]methoxy]-2-fluoro-benzoyl]thiazolidine-4-carboxylic acid], the IC50 on NaV1.5 (read-out: Nav1.5) stood at 17000 nM; at hNav1.7, 80 nM; at human NaV1.7, 1000 nM.
Turning to `O=C(O)[C@@H]1[C@@H]2C[C@@H]2CN1C(=O)c1cc(C2CC2)c(OCC23CC4CC(CC(C4)C2)C3)cc1F` (racemic) [Example 61, racemate-(1R, 3S, 5R)-2-(4-((adamantan-1-yl)methoxy)-5-cyclopropyl-2-fluorobenzoyl)-2-azabicyclo[3.1.0]hexane-3-carboxylic acid], the figures for the IC50 on NaV1.5 (read-out: Nav1.5), on hNav1.7 and at human NaV1.7 were 12000 nM, 970 nM and 2700 nM, respectively.
The corresponding values for `C[C@H]1OCN(C(=O)c2cc(C3CC3)c(OCC3CCN(C(c4cc(Cl)cc(Cl)c4)C(F)(F)F)CC3)cc2F)[C@@H]1C(=O)O` (stereo partly drawn) [Example 226, (4S,5R)-3-(5-cyclopropyl-4-((1-(1-(3,5-dichlorophenyl)-2,2,2-trifluoroethyl)-piperidin-4-yl)methoxy)-2-fluorobenzoyl)-5-methyloxazolidine-4-carboxylic acid] are 6100 nM, 12 nM and 130 nM.
For the compound `CC1(COc2cc(F)c(C(=O)N[C@H](C(=O)O)C3CC3)cc2C2CC2)CN([C@H](c2ccccc2)c2cc(Cl)cc(Cl)c2)C1` (single isomer, unassigned) [Example 113], the IC50 at NaV1.5 (read-out: Nav1.5) amounted to 15000 nM; on hNav1.7, 7.6 nM; against human NaV1.7 it was 610 nM.
Consider `CC(C)COc1ncc(Oc2cc(F)c(C(=O)N3CCC[C@H]3C(=O)O)cc2C2CC2)cc1C1CC1` [Example 98, (5-cyclopropyl-4-((5-cyclopropyl-6-isobutoxypyridin-3-yl)oxy)-2-fluorobenzoyl)-L-proline trifluoroacetic acid salt and (4-((5-chloro-6-isobutoxypyridin-3-yl)oxy)-5-cyclopropyl-2-fluorobenzoyl)-L-proline trifluoroacetic acid salt], for which the IC50 was ≥ 30000 nM against NaV1.5 (setting [1]), 440 nM on hNav1.7 and 740 nM against human NaV1.7.
Consider `O=C(O)[C@@H]1CCCN1C(=O)c1cc(C2CC2)c(OCC2CCN(C(c3ccccc3)c3cc(Cl)cc(Cl)c3)CC2)cc1F` (stereo partly drawn) [Example 193, (2S)-1-(5-Cyclopropyl-4-((1-((3,5-dichlorophenyl)(phenyl)methyl)piperidin-4-yl)methoxy)-2-fluorobenzoyl)pyrrolidine-2-carboxylic acid trifluoroacetate], for which the IC50 came to 7600 nM at NaV1.5 (read-out: Nav1.5), 20 nM on hNav1.7 and 990 nM against human NaV1.7.
Consider `C[C@@H](c1cc(Cl)cc(Cl)c1)N1CCC[C@H](COc2cc(F)c(C(=O)N3CCC[C@H]3C(=O)O)cc2C2CC2)C1` (single isomer, unassigned) [Example 73b], for which the IC50 is 22000 nM on NaV1.5 (read-out: Nav1.5), 93 nM at hNav1.7 and 1500 nM on human NaV1.7.
Take `CC(C)[C@H](NC(=O)c1cc(C2CC2)c(OCC2(F)CCN(Cc3cc(Cl)cc(C(F)(F)F)c3)CC2)cc1F)C(=O)O` [Example 216, (4-((1-(3-Chloro-5-(trifluoromethyl)benzyl)-4-fluoropiperidin-4-yl)methoxy)-5-cyclopropyl-2-fluorobenzoyl)-L-valine]: the IC50 against NaV1.5 (setting [1]) was ≥ 30000 nM; on hNav1.7, 600 nM; against human NaV1.7 it was 8600 nM.
As for `COC1(C(F)(F)F)C[C@@H](C(=O)O)N(C(=O)c2cc(C3CC3)c(OCC34CC5CC(CC(C5)C3)C4)cc2F)C1` (stereo partly drawn) [Example 214, (2S)-1-(4-((Adamantan-1-yl)methoxy)-5-cyclopropyl-2-fluorobenzoyl)-4-methoxy-4-(trifluoromethyl)pyrrolidine-2-carboxylic acid], the IC50 was found to be 11000 nM at NaV1.5 (read-out: Nav1.5), 9700 nM at hNav1.7 and 8200 nM at human NaV1.7.
On to `O=C(O)[C@@H]1C[C@@H](F)CN1C(=O)c1cc(C2CC2)c(OCC2CCN(Cc3cc(C(F)(F)F)cc(Cl)c3F)CC2)cc1F` [Example 101, (2S,4R)-1-(4-((1-(3-chloro-2-fluoro-5-(trifluoromethyl)benzyl)-piperidin-4-yl)methoxy)-5-cyclopropyl-2-fluorobenzoyl)-4-fluoropyrrolidine-2-carboxylic acid], for which the results for the IC50 against NaV1.5 (setting [1]), at hNav1.7 and against human NaV1.7 were ≥ 30000 nM, 66 nM and 520 nM, respectively.
Take `N#C[C@H]1C[C@@H](C(=O)O)N(C(=O)c2cc(C3CC3)c(OCC34CC5CC(CC(C5)C3)C4)cc2F)C1` [Example 144, (2S,4S)-1-[4-(1-adamantylmethoxy)-5-cyclopropyl-2-fluoro-benzoyl]-4-cyano-pyrrolidine-2-carboxylic acid]: the IC50 against NaV1.5 (setting [1]) was ≥ 30000 nM; at hNav1.7, 870 nM; on human NaV1.7, 3500 nM.
Turning to `O=C(O)[C@@H]1COC(=O)N1C(=O)c1cc(C2CC2)c(OCC23CC4CC(CC(C4)C2)C3)cc1F` [Example 133, (S)-3-(4-(adamantan-1-ylmethoxy)-5-cyclopropyl-2-fluorobenzoyl)-2-oxooxazolidine-4-carboxylic acid], the IC50 at NaV1.5 (read-out: Nav1.5) came out at 9400 nM; at hNav1.7 it was 1400 nM; on human NaV1.7 it was 18000 nM.
On to `C[C@@H]1[C@@H](C(=O)O)N(C(=O)c2cc(C3CC3)c(OCC3(F)CCN(Cc4cc(C(F)(F)F)ccc4Cl)CC3)cc2F)C[C@@H]1F` [Example 111, (2S,3R,4R)-1-(4-((1-(2-chloro-5-(trifluoromethyl)benzyl)-4-fluoropiperidin-4-yl)methoxy)-5-cyclopropyl-2-fluorobenzoyl)-4-fluoro-3-methylpyrrolidine-2-carboxylic acid], for which the IC50 on NaV1.5 (read-out: Nav1.5) came out at 14000 nM; on hNav1.7, 36 nM; against human NaV1.7, 230 nM.
Consider `O=C(O)[C@@H]1C[C@@H](F)CN1C(=O)c1cc(C2CC2)c(OCC2CCN(Cc3cc(C(F)(F)F)cc(C4CC4)n3)CC2)cc1F` [Example 93, (2S, 4R)-1-(5-cyclopropyl-4-((1-((6-cyclopropyl-4-(trifluoromethyl)-pyridin-2-yl)methyl)piperidin-4-yl)methoxy)-2-fluorobenzoyl)-4-fluoropyrrolidine-2-carboxylic acid], for which the figures for the IC50 against NaV1.5 (setting [1]), on hNav1.7 and at human NaV1.7 were ≥ 30000 nM, 81 nM and 660 nM, respectively.
On to `O=C(O)[C@@H]1CCCN1C(=O)c1cc(C2CC2)c(COc2cc(Cl)cc(OC(F)(F)F)c2)cc1F` [Example 182, (S)-1-(4-((3-chloro-5-(trifluoromethoxy)phenoxy)methyl)-5-cyclopropyl-2-fluorobenzoyl)pyrrolidine-2-carboxylic acid], for which the IC50 is 25000 nM at NaV1.5 (read-out: Nav1.5), 32 nM at hNav1.7 and 220 nM on human NaV1.7.
